Measured values taken from patent US20230104936A1, “TRPML MODULATORS” (Casma Therapeutics, Inc., priority 2019, published 2023).

tested on: TFEB; test: TFEB nuclear translocation assay, HeLa wt cells; format: cell-based; conditions: Homo sapiens, HeLa, 2 h, 2 hrs compound treatment, Table 1 does not say HeLa wt or TRPML1 KO
Procedure, shortened: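 HeLa wt or TRPML1 KO cells treated 2 hrs with compounds at 37° C, fixed in 4% PFA, immunostained with anti-TFEB plus Alexa 488 secondary and Hoechst. Imaged at ×20, four fields/well; read-out is nuclear/perinuclear-ring TFEB intensity ratio, reported as AC50.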

Question: How did the AC50 turn out when `CN(C)S(=O)(=O)c1ccc(S(=O)(=O)Nc2ccccc2N2CCCC3(CCCO3)C2)cc1` (centres unmarked) [Compound A-497, N1,N1-dimethyl-N4-(2-{1-oxa-7-azaspiro[4.5]decan-7-yl}phenyl)benzene-1,4-disulfonamide] was run?
Answer: Its AC50 is ≤ 2000 nM.

Question: How did the AC50 turn out when `CCOCCC1CCN(c2ccccc2NS(=O)(=O)c2ccc(S(=O)(=O)N(C)C)cc2)CC1` [Compound A-498, N4-{2-[4-(2-ethoxyethyl)piperidin-1-yl]phenyl}-N1,N1-dimethylbenzene-1,4-disulfonamide] was run?
Answer: Its AC50 is ≤ 2000 nM.

Question: Which AC50 does the source give for `CN(C)S(=O)(=O)c1ccc(S(=O)(=O)Nc2ccccc2N2CCCC23CCCOC3)cc1` (centres unmarked) [Compound A-499, N1,N1-dimethyl-N4-(2-{7-oxa-1-azaspiro[4.5]decan-1-yl}phenyl)benzene-1,4-disulfonamide] here?
Answer: The AC50 was ≤ 2000 nM.

Question: Which AC50 does the source give for `Cc1cc(C)cc(CS(=O)(=O)Nc2ccccc2N2CCN(C(=O)C(C)(C)C)CC2)c1` [Compound A-500, 1-(3,5-dimethylphenyl)-N-{2-[4-(2,2-dimethylpropanoyl)piperazin-1-yl]phenyl}methanesulfonamide] here?
Answer: The AC50 was 2010 to 8000 nM.

Question: For `CC(C)(C)C(=O)N1CCN(c2ccccc2NS(=O)(=O)Cc2ccc3c(c2)COCC3)CC1` [Compound A-501, 1-(3,4-dihydro-1H-2-benzopyran-7-yl)-N-{2-[4-(2,2-dimethylpropanoyl)piperazin-1-yl]phenyl}methanesulfonamide], which AC50 is on record?
Answer: The AC50 was 2010 to 8000 nM.

Question: Which AC50 does the source give for `CN(C)S(=O)(=O)c1ccc(S(=O)(=O)Nc2ccccc2N2CC3CN(Cc4ccccc4)CC3C2)cc1` (centres unmarked) [Compound A-502, N4-(2-{5-benzyl-octahydropyrrolo[3,4-c]pyrrol-2-yl}phenyl)-N1,N1-dimethylbenzene-1,4-disulfonamide; formic acid] here?
Answer: The AC50 was ≤ 2000 nM.

Question: How did the AC50 turn out when `CN(C)S(=O)(=O)c1ccc(S(=O)(=O)n2nc(C3CCN(c4c(F)cccc4F)CC3)c3c2CCCN3)cc1` [Compound A-503, 4-((3-(1-(2,6-difluorophenyl)piperidin-4-yl)-4,5,6,7-tetrahydro-1H-pyrazolo[4,3-b]pyridin-1-yl)sulfonyl)-N,N-dimethylbenzenesulfonamide] was run?
Answer: Its AC50 is ≤ 2000 nM.

Question: For `CN(C)S(=O)(=O)c1ccc(S(=O)(=O)n2nc(C3CCN(c4c(F)cccc4F)CC3)c3c2CCCC3)cc1` [Compound A-504, 4-({3-[1-(2,6-difluorophenyl)piperidin-4-yl]-4,5,6,7-tetrahydro-1H-indazol-1-yl}sulfonyl)-N,N-dimethylbenzene-1-sulfonamide], which AC50 is on record?
Answer: The AC50 was ≤ 2000 nM.

Question: With `CC(c1cccnc1)N1CCN(c2ccccc2NS(=O)(=O)c2ccc(S(=O)(=O)N(C)C)cc2)CC1` (centres unmarked) [Compound A-505, N1,N1-dimethyl-N4-(2-{4-[1-(pyridin-3-yl)ethyl]piperazin-1-yl}phenyl)benzene-1,4-disulfonamide] as the compound, how does the AC50 read?
Answer: The AC50 was 2010 to 8000 nM.

Question: How did the AC50 turn out when `CN(C)S(=O)(=O)c1ccc(S(=O)(=O)Nc2ccccc2N2CCC(C(C)(F)F)CC2)cc1` [Compound A-506, N4-{2-[4-(1,1-difluoroethyl)piperidin-1-yl]phenyl}-N1,N1-dimethylbenzene-1,4-disulfonamide] was run?
Answer: Its AC50 is ≤ 2000 nM.

Question: How did the AC50 turn out when `CN(C)S(=O)(=O)c1ccc(S(=O)(=O)Nc2ccccc2N2CCCC3(COC3)C2)cc1` [Compound A-507, N1,N1-dimethyl-N4-(2-{2-oxa-6-azaspiro[3.5]nonan-6-yl}phenyl)benzene-1,4-disulfonamide] was run?
Answer: The AC50 was 2010 to 8000 nM.

Question: For `CN(C)S(=O)(=O)c1ccc(S(=O)(=O)Nc2ccccc2N2CCCC23CCOC3)cc1` (centres unmarked) [Compound A-508, N1,N1-dimethyl-N4-(2-{7-oxa-1-azaspiro[4.4]nonan-1-yl}phenyl)benzene-1,4-disulfonamide], which AC50 is on record?
Answer: The AC50 was 2010 to 8000 nM.

Question: How did the AC50 turn out when `CN(C)S(=O)(=O)c1ccc(S(=O)(=O)Nc2ccccc2N2CCN(CC3CCOC3)CC2)cc1` (centres unmarked) [Compound A-509, N1,N1-dimethyl-N4-(2-{4-[(oxolan-3-yl)methyl]piperazin-1-yl}phenyl)benzene-1,4-disulfonamide] was run?
Answer: Its AC50 is 2010 to 8000 nM.

Question: How did the AC50 turn out when `CN(C)S(=O)(=O)c1ccc(S(=O)(=O)Nc2ccccc2N2CCN(CC3CCOCC3)CC2)cc1` [Compound A-510, N1,N1-dimethyl-N4-(2-{4-[(oxan-4-yl)methyl]piperazin-1-yl}phenyl)benzene-1,4-disulfonamide] was run?
Answer: The AC50 was ≤ 2000 nM.

Question: For `CN(C)S(=O)(=O)c1ccc(S(=O)(=O)Nc2ccccc2N2CCCC3(CCCOC3)C2)cc1` (centres unmarked) [Compound A-511, N1,N1-dimethyl-N4-(2-{2-oxa-8-azaspiro[5.5]undecan-8-yl}phenyl)benzene-1,4-disulfonamide], which AC50 is on record?
Answer: Its AC50 is ≤ 2000 nM.

Question: `CC(C)c1ccc(S(=O)(=O)Nc2ccccc2N2CCN(C(=O)C(C)(C)C)CC2)cc1` [Compound A-512, N-{2-[4-(2,2-dimethylpropanoyl)piperazin-1-yl]phenyl}-4-(propan-2-yl)benzene-1-sulfonamide] was tested. Which AC50 did it give?
Answer: The AC50 was 2010 to 8000 nM.

Question: For `CCC(C)c1ccc(S(=O)(=O)Nc2ccccc2N2CCN(C(=O)C(C)(C)C)CC2)cc1` (centres unmarked) [Compound A-513, 4-(butan-2-yl)-N-{2-[4-(2,2-dimethylpropanoyl)piperazin-1-yl]phenyl}benzene-1-sulfonamide], which AC50 is on record?
Answer: The AC50 was 2010 to 8000 nM.

Question: `CC1(C)Cc2cc(S(=O)(=O)Nc3ccccc3N3CCN(C(=O)C(C)(C)C)CC3)ccc2O1` [Compound A-514, N-{2-[4-(2,2-dimethylpropanoyl)piperazin-1-yl]phenyl}-2,2-dimethyl-2,3-dihydro-1-benzofuran-5-sulfonamide] was tested. Which AC50 did it give?
Answer: Its AC50 is ≤ 2000 nM.

Question: For `Cn1ccc2cc(S(=O)(=O)Nc3ccccc3N3CCN(C(=O)C(C)(C)C)CC3)ccc21` [Compound A-515, N-{2-[4-(2,2-dimethylpropanoyl)piperazin-1-yl]phenyl}-1-methyl-1H-indole-5-sulfonamide], which AC50 is on record?
Answer: The AC50 was 2010 to 8000 nM.

Question: Which AC50 does the source give for `CC(C)(C)C(=O)N1CCN(c2ccccc2NS(=O)(=O)c2ccc(C(C)(C)C)cc2)CC1` [Compound A-516, 4-tert-butyl-N-{2-[4-(2,2-dimethylpropanoyl)piperazin-1-yl]phenyl}benzene-1-sulfonamide] here?
Answer: The AC50 was 2010 to 8000 nM.

Question: For `CN1CC2(CCN(c3ccccc3NS(=O)(=O)c3ccc(SC(C)(C)C)cc3)CC2)c2ccc(F)cc21` [Compound A-517, 4-(tert-butylsulfanyl)-N-(2-{6-fluoro-1-methyl-1,2-dihydrospiro[indole-3,4′-piperidin]-1′-yl}phenyl)benzene-1-sulfonamide], which AC50 is on record?
Answer: The AC50 was 2010 to 8000 nM.

Question: Which AC50 does the source give for `COCCOCC1(C)CCN(c2ccccc2NS(=O)(=O)c2ccc(S(=O)(=O)N(C)C)cc2)CC1` [Compound A-518, N4-(2-{4-[(2-methoxyethoxy)methyl]-4-methylpiperidin-1-yl}phenyl)-N1,N1-dimethylbenzene-1,4-disulfonamide] here?
Answer: Its AC50 is ≤ 2000 nM.

Question: Which AC50 does the source give for `COCCOCCOCC1(C)CCN(c2ccccc2NS(=O)(=O)c2ccc(S(=O)(=O)N(C)C)cc2)CC1` [Compound A-519, N4-[2-(4-{[2-(2-methoxyethoxy)ethoxy]methyl}-4-methylpiperidin-1-yl)phenyl]-N1,N1-dimethylbenzene-1,4-disulfonamide] here?
Answer: Its AC50 is ≤ 2000 nM.

Question: How did the AC50 turn out when `Cc1ccc(N2CCOCC2)c(NS(=O)(=O)c2ccc3c(c2)CCC3)c1` [Compound A-520, N-[5-methyl-2-(morpholin-4-yl)phenyl]-2,3-dihydro-1H-indene-5-sulfonamide] was run?
Answer: Its AC50 is ≤ 2000 nM.

Question: With `COc1ccc(N2CCOCC2)c(NS(=O)(=O)c2ccc3c(c2)CCC3)c1` [Compound A-521, N-[5-methoxy-2-(morpholin-4-yl)phenyl]-2,3-dihydro-1H-indene-5-sulfonamide] as the compound, how does the AC50 read?
Answer: Its AC50 is ≤ 2000 nM.

Question: `CN(C)S(=O)(=O)c1ccc(S(=O)(=O)Nc2ccccc2N2CCC(C)(C(C)(C)O)CC2)cc1` [Compound A-522, N1-(2-(4-(2-hydroxypropan-2-yl)-4-methylpiperidin-1-yl)phenyl)-N4,N4-dimethylbenzene-1,4-disulfonamide] was tested. Which AC50 did it give?
Answer: Its AC50 is 2010 to 8000 nM.

Question: For `CCOC1(C)CCN(c2ccccc2NS(=O)(=O)c2ccc(S(=O)(=O)N(C)C)cc2)CC1` [Compound A-523, N4-[2-(4-ethoxy-4-methylpiperidin-1-yl)phenyl]-N1,N1-dimethylbenzene-1,4-disulfonamide], which AC50 is on record?
Answer: The AC50 was ≤ 2000 nM.

Question: With `CN(C)S(=O)(=O)c1ccc(S(=O)(=O)Nc2ccccc2N2CCC3(CCOCC3)CC2)cc1` [Compound A-524, N1,N1-dimethyl-N4-(2-{3-oxa-9-azaspiro[5.5]undecan-9-yl}phenyl)benzene-1,4-disulfonamide] as the compound, how does the AC50 read?
Answer: The AC50 was ≤ 2000 nM.

Question: For `CN(C)S(=O)(=O)c1ccc(S(=O)(=O)Nc2ccccc2N2CCN(CC(C)(F)F)CC2)cc1` [Compound A-525, N4-{2-[4-(2,2-difluoropropyl)piperazin-1-yl]phenyl}-N1,N1-dimethylbenzene-1,4-disulfonamide], which AC50 is on record?
Answer: The AC50 was ≤ 2000 nM.

Question: With `CC(C)CN1CCN(c2ccccc2NS(=O)(=O)c2ccc(S(=O)(=O)N(C)C)cc2)CCC1=O` [Compound A-526, N1,N1-dimethyl-N4-{2-[4-(2-methylpropyl)-5-oxo-1,4-diazepan-1-yl]phenyl}benzene-1,4-disulfonamide] as the compound, how does the AC50 read?
Answer: The AC50 was 2010 to 8000 nM.

Question: For `CC(C)(C)C(=O)N1CCN(c2ccccc2NS(=O)(=O)c2ccc(C(F)(F)F)cc2)CC1` [Compound A-527, N-{2-[4-(2,2-dimethylpropanoyl)piperazin-1-yl]phenyl}-4-(trifluoromethyl)benzene-1-sulfonamide], which AC50 is on record?
Answer: The AC50 was 2010 to 8000 nM.

Question: `CC(C)(C)C(=O)N1CCN(c2ccccc2NS(=O)(=O)c2ccc(C3CC3(F)F)cc2)CC1` (centres unmarked) [Compound A-528, 4-(2,2-difluorocyclopropyl)-N-{2-[4-(2,2-dimethylpropanoyl)piperazin-1-yl]phenyl}benzene-1-sulfonamide] was tested. Which AC50 did it give?
Answer: The AC50 was 2010 to 8000 nM.

Question: For `CC(C)(C)C(=O)N1CCN(c2ccccc2NS(=O)(=O)c2ccc(C(F)F)cc2)CC1` [Compound A-529, 4-(difluoromethyl)-N-{2-[4-(2,2-dimethylpropanoyl)piperazin-1-yl]phenyl}benzene-1-sulfonamide], which AC50 is on record?
Answer: Its AC50 is 2010 to 8000 nM.

Question: `CC1Cc2cc(S(=O)(=O)Nc3ccccc3N3CCN(C(=O)C(C)(C)C)CC3)ccc2O1` (centres unmarked) [Compound A-530, N-{2-[4-(2,2-dimethylpropanoyl)piperazin-1-yl]phenyl}-2-methyl-2,3-dihydro-1-benzofuran-5-sulfonamide] was tested. Which AC50 did it give?
Answer: The AC50 was 2010 to 8000 nM.

Question: How did the AC50 turn out when `COc1ccc(S(=O)(=O)Nc2ccccc2N2CCN(C(C)C(F)(F)F)CC2)cc1` (centres unmarked) [Compound A-531, 4-methoxy-N-{2-[4-(1,1,1-trifluoropropan-2-yl)piperazin-1-yl]phenyl}benzene-1-sulfonamide] was run?
Answer: Its AC50 is ≤ 2000 nM.
